The subject of assay [1] is BjaRWT (B0033|ATG) receiver cells. Briefly: BjaR receiver cell AHSL dose-response (gfp reporter, plate reader). It is filed as cell-based, E. coli XL10-Gold. The settings on record: for Mean normalised fluorescence / Normalised fluorescence / GFP: sheet 3e; for Normalised fluorescence / GFP: Expt1-3; for GFP: raw fluorescence ex 488/em 510 nm. From the text:
(§1) These findings are consistent with the predicted translation initiation rates of the respective sequences—translation from the BBa_B0033 RBS provides 1% of protein yield compared to the BBa_B0034 RBS, just as an CTG start codon provides 1% of the protein yield compared to an ATG start codon[30],[31]. This also offers support as to why the ON-state gfp expression level increased in variants with a tighter OFF-state; more cellular resources were available for GFP synthesis when comparatively fewer were allocated to BjaR synthesis. To elucidate the impact of the S107R variant on gene circuit performance, we introduced the S107R variant alone back into the bjaRWT gene, in the context of the BBa_B0033 RBS background.
(§2) In addition to quantifying how these BjaR receiver cells responded to their branched, cognate ligand, we also sought to determine whether the BjaR receiver cells could be activated by structurally dissimilar AHSLs involved in the LuxI/R, EsaI/R, LasI/R and RhlI/R QS systems previously used in synthetic cell communication[5],[7],[8]. To this end, we measured the fluorescence of BjaR receiver cells grown in the presence of their activators, 3OC6-HSL, 3OC12-HSL and C4-HSL, respectively (Supplementary Fig. 13a).
(§3) The BjaR reporter plasmids were retransformed into E. coli XL10-Gold cells for each experiment. A single colony was used to inoculate 5 ml LB + Amp media and incubated at 37 °C, 225 r.p.m. overnight. Overnight cultures were diluted 1/250 or 1/500 in 5 ml M9 minimal media + Amp and incubated at 37 °C, 225 r.p.m. for 3 h and 45 min (until OD600 = ~0.075). Cultures were diluted down to OD600 = 0.05 with M9 minimal media + Amp, and 200 µl was added to wells of a 96-well plate containing 1 µl IV-HSL dissolved in DMSO or 1 µl BjaI CFPS reactions (IV-HSL concentrations obtained from serial dilution from 63.2 µM to 632 pM; final DMSO concentration = 0.5%). Cells were incubated at 37 °C, 800 r.p.m., in a thermomixer with a heated lid for 4 h. Fluorescence and OD600 were measured in a Tecan M1000 infinite plate reader (excitation, 488 nm; emission, 510 nm; bandwidth, 5 nm; gain, 101 and z position, 21,311 µm). The dose–response curves were fitted to the function indicated by Eq. (1), where a = maximal fluorescence output, b = basal fluorescence output, X = concentration of AHSL, GFP = fluorescence at the given condition, EC50 = AHSL at 50% maximal fluorescence output and h = hill coefficient. EC50 and h were derived using the nonlinear regression model based on Eq. (1), in MATLAB. A summary of the dose–response data is available in Supplementary Table 1.1 GFP=b+a−b/1+10^logEC50−X×h

In assay [2] the test system is BjaRS107R (B0033|ATG) receiver cells. Described as above. It is filed as cell-based, E. coli XL10-Gold.
Description: as §1, §2, §3

Each structure is given as a SMILES string. Values joined by “and” are separate entries in the source; they are usually repeats but may differ in a detail not shown here. Equal values may be shown once. “Also recorded” adds a separate entry of the source.

Data on five compounds can be found in article PMC10449621, “Engineering cellular communication between light-activated synthetic cells and bacteria” (Nature Chemical Biology, 2023).

Regarding `CCCCCC(=O)N[C@H]1CCOC1=O` [C6HSL], the Mean normalised fluorescence in assay [1] (Log([ASHL]) -6.5) was found to be 1368.65; in assay [1] (Log([ASHL]) -7), 1069.59; in assay [1] (Log([ASHL]) -7.5), 1072.17; in assay [1] (Log([ASHL]) -8), 1019.8; in assay [1] (Log([ASHL]) -8.5), 1002.73; in assay [1] (Log([ASHL]) -9) it was 1027.01. For the same compound, the Mean normalised fluorescence in assay [1] (Log([ASHL]) -9.5) was found to be 1017.95; in assay [1] (Log([ASHL]) -10), 1072.17; in assay [1] (Log([ASHL]) -10.5), 1041.96; in assay [1] (Log([ASHL]) -11) it was 1037.02; in assay [1] (Log([ASHL]) -11.5) it was 1058.71. For the same compound, the Normalised fluorescence was 1655.84 and 1049.46 and 1400.63 in assay [1] (Log([ASHL]) -6.5); 1188.52 and 915.717 and 1104.54 in assay [1] (Log([ASHL]) -7); 1112.94 and 960.351 and 1143.21 in assay [1] (Log([ASHL]) -7.5); 1032.26 and 951.298 and 1075.83 in assay [1] (Log([ASHL]) -8); 909.599 and 1094.09 and 1004.49 in assay [1] (Log([ASHL]) -8.5); 916.088 and 1080.14 and 1084.79 in assay [1] (Log([ASHL]) -9). For the same compound, the Normalised fluorescence is 932.091 and 1057.66 and 1064.1 in assay [1] (Log([ASHL]) -9.5); 960.615 and 1126.04 and 1129.87 in assay [1] (Log([ASHL]) -10); 969.437 and 1060.85 and 1095.6 in assay [1] (Log([ASHL]) -10.5); 937.562 and 1077.9 and 1095.59 in assay [1] (Log([ASHL]) -11); 974.837 and 1085.17 and 1116.13 in assay [1] (Log([ASHL]) -11.5). The GFP in assay [1] (Log([ASHL]) -6.5) was 525 and 399 and 567; in assay [1] (Log([ASHL]) -7) it was 407 and 365 and 478; in assay [1] (Log([ASHL]) -7.5), 387 and 361 and 491; in assay [1] (Log([ASHL]) -8) it was 373 and 371 and 472; in assay [1] (Log([ASHL]) -8.5), 364 and 473 and 363; in assay [1] (Log([ASHL]) -9), 364 and 464 and 378. For the same compound, the GFP is 365 and 455 and 371 in assay [1] (Log([ASHL]) -9.5); 370 and 475 and 378 in assay [1] (Log([ASHL]) -10); 369 and 456 and 376 in assay [1] (Log([ASHL]) -10.5); 358 and 462 and 368 in assay [1] (Log([ASHL]) -11); 366 and 368 and 469 in assay [1] (Log([ASHL]) -11.5).
In the case of `CCCCCCCCCCCC(=O)N[C@H]1CCOC1=O` [C12-HSL], the Mean normalised fluorescence in assay [1] (Log([ASHL]) -6.5) is 3660.47; in assay [1] (Log([ASHL]) -7) it was 1319.41; in assay [1] (Log([ASHL]) -7.5) it was 1262.26; in assay [1] (Log([ASHL]) -8), 1041.4; in assay [1] (Log([ASHL]) -8.5), 1040.51; in assay [1] (Log([ASHL]) -9), 1031.28. Moreover, the Mean normalised fluorescence came to 1017.68 in assay [1] (Log([ASHL]) -9.5); 1062.17 in assay [1] (Log([ASHL]) -10); 1063.23 in assay [1] (Log([ASHL]) -10.5); 1104.13 in assay [1] (Log([ASHL]) -11); 1958.08 in assay [1] (Log([ASHL]) -11.5). Further, the Normalised fluorescence in assay [1] (Log([ASHL]) -7) was 1877.08 and 986.388 and 1094.76; in assay [1] (Log([ASHL]) -7.5), 1653.64 and 971.756 and 1161.39; in assay [1] (Log([ASHL]) -8), 1139.61 and 918.045 and 1066.55; in assay [1] (Log([ASHL]) -8.5), 943.135 and 1084.52 and 1093.88; in assay [1] (Log([ASHL]) -9), 984.805 and 1073.68 and 1035.35; in assay [1] (Log([ASHL]) -9.5) it was 918.306 and 1057.93 and 1076.79. Further, the Normalised fluorescence was 938.8 and 1069.72 and 1178 in assay [1] (Log([ASHL]) -10); 1055.63 and 1095.89 and 1038.16 in assay [1] (Log([ASHL]) -10.5); 961.19 and 1115.34 and 1235.86 in assay [1] (Log([ASHL]) -11). Moreover, the GFP in assay [1] (Log([ASHL]) -7) was 569 and 370 and 480; in assay [1] (Log([ASHL]) -7.5) it was 519 and 366 and 490; in assay [1] (Log([ASHL]) -8), 388 and 367 and 474; in assay [1] (Log([ASHL]) -8.5), 358 and 472 and 378; in assay [1] (Log([ASHL]) -9) it was 376 and 464 and 363; in assay [1] (Log([ASHL]) -9.5), 351 and 459 and 368. Further, the GFP is 357 and 459 and 389 in assay [1] (Log([ASHL]) -10); 379 and 459 and 370 in assay [1] (Log([ASHL]) -10.5); 359 and 475 and 401 in assay [1] (Log([ASHL]) -11); 637 and 706 and 473 in assay [1] (Log([ASHL]) -11.5).
As to `CCCCCCCCCC(=O)CC(=O)N[C@H]1CCOC1=O` [3OC12-HSL], the figures for the “gfp expression in response to non-cognate AHSL” value in assay [2] and in assay [1] were “minimal GFP was produced” and “did not express gfp; also recorded: minimal GFP was produced”, respectively.
Consider `CCCC(=O)CC(=O)N[C@H]1CCOC1=O` [3OC6-HSL, N-(3-oxo-hexanoyl)-L-homoserine lactone], for which the “gfp expression in response to non-cognate AHSL” value in assay [2] was “minimal GFP was produced”; in assay [1], “did not express gfp; also recorded: minimal GFP was produced”.
`CCCC(=O)N[C@H]1CCOC1=O` [C4HSL]: the Mean normalised fluorescence in assay [1] (Log([ASHL]) -6.5) is reported as 89755.1; in assay [1] (Log([ASHL]) -7) it was 24851.4; in assay [1] (Log([ASHL]) -7.5), 5633.53; in assay [1] (Log([ASHL]) -8) it was 2030.88; in assay [1] (Log([ASHL]) -8.5), 1297.09; in assay [1] (Log([ASHL]) -9), 1170.67. The Mean normalised fluorescence amounted to 1170.76 in assay [1] (Log([ASHL]) -9.5); 1105.3 in assay [1] (Log([ASHL]) -10); 1140.47 in assay [1] (Log([ASHL]) -10.5); 1127.16 in assay [1] (Log([ASHL]) -11); 1165.29 in assay [1] (Log([ASHL]) -11.5). Besides, the Normalised fluorescence in assay [1] (Log([ASHL]) -6.5) was 87597.7 and 86111.2 and 95556.3; in assay [1] (Log([ASHL]) -7), 25795.6 and 21987 and 26771.5; in assay [1] (Log([ASHL]) -7.5), 5943.36 and 4742.76 and 6214.47; in assay [1] (Log([ASHL]) -8), 2169.85 and 1704.52 and 2218.28; in assay [1] (Log([ASHL]) -8.5), 1166.04 and 1369.65 and 1355.57; in assay [1] (Log([ASHL]) -9) it was 1077.7 and 1245.14 and 1189.19. In addition, the Normalised fluorescence was 1086.47 and 1200.78 and 1225.03 in assay [1] (Log([ASHL]) -9.5); 1065.28 and 1106.75 and 1143.86 in assay [1] (Log([ASHL]) -10); 1078 and 1145.04 and 1198.38 in assay [1] (Log([ASHL]) -10.5); 1056.83 and 1148.2 and 1176.47 in assay [1] (Log([ASHL]) -11); 1094.25 and 1223.38 and 1178.24 in assay [1] (Log([ASHL]) -11.5). In addition, the GFP is 21193 and 21411 and 30615 in assay [1] (Log([ASHL]) -6.5); 6504 and 5697 and 8639 in assay [1] (Log([ASHL]) -7); 1544 and 1323 and 2047 in assay [1] (Log([ASHL]) -7.5); 628 and 544 and 810 in assay [1] (Log([ASHL]) -8); 416 and 558 and 438 in assay [1] (Log([ASHL]) -8.5); 387 and 507 and 403 in assay [1] (Log([ASHL]) -9). The GFP in assay [1] (Log([ASHL]) -9.5) is 387 and 492 and 393; in assay [1] (Log([ASHL]) -10) it was 377 and 461; in assay [1] (Log([ASHL]) -10.5), 375 and 468 and 384; in assay [1] (Log([ASHL]) -11) it was 372 and 467 and 379; in assay [1] (Log([ASHL]) -11.5) it was 376 and 387 and 476.
